The test system of test [1] is NCI-Adr resistant. The test is described as follows: SRB cytotoxicity, P-glycoprotein expressing cells with and without verapamil. Format: cell-based. The following applies: for IC50: Homo sapiens, NCI/ADR-RES, 72 h, SRB; for relative resistance, NCI-Adr resistant −/+ verapamil: individual experiments; for RR (relative resistance) NCI-Adr resistant −/+ verapamil: ratio of mean IC50. Here is the method:
In these experiments, the P-glycoprotein expressing NCI-Adr resistant subline (Vickers et al., 1989. Mol Endocrinology 3 (1):157-164) was used. […] Briefly, cells were plated in 96 well dishes 24 hours prior to compound addition. Where noted, they were exposed to verapamil for 4 hours prior to compound addition and then throughout the treatment period (72 hours). The assay was terminated with the addition of cold TCA to a final concentration of 10% and the plates were incubated for one hour at 4° C. The plates were then washed 5 times with water and 100 μl of a Sulforhodamine B solution (4%) was added to each well. The plate was then incubated for 10 minutes at room temperature before removal of unbound dye by washing with 1% acetic acid.

Test [2] addresses T1, JNK1α1 (Homo sapiens, UniProt P45983).
T1 construct: purchased Upstate 14-327
The experiment in a line: JNK1α1 kinase assay. Format: biochemical. Here is the method:
• 1. 10× Reaction Buffer: 500 mM Tris-HCl pH 7.5, 1 mM EGTA, 1% 2-mercaptoethanol. • 2. Enzyme Dilution Buffer (EDB): 50 mM Tris-HCl pH 7.5, 0.1 mM EGTA, 0.1% 2-mercaptoethanol, 1 mg/ml BSA. • 3. JNK 11/SAPK1c, active: Dilute to 0.4-8 ng/μl with EDB. Use […] per assay point. • 4. ATF2 (amino acids 19-96) (Catalog #12-367): Prepare a 1.08 mg/ml stock. Use 2.5 μl per assay point for a final concentration of 3 μM per assay point. • 5. Magnesium/ATP Cocktail (Catalog #20-113): 75 mM MgCl2 and 500 μM ATP in 20 mM MOPS, pH 7.2, 25 mM β-glycerol phosphate, 5 mM EGTA, 1 mM sodium orthovanadate, 1 mM dithiothreitol. • 6. [γ-^32P]ATP: Stock 1 mCi/100 μl (3000 Ci/mmol, obtained from PerkinElmer, Cat. # BLU002A). Make 10 μl aliquots (100 μCi/vial). Before starting the assay, dilute an aliquot to 1 μCi/μl with 90 μl of Magnesium/ATP Cocktail diluted 1:2 with sterile, distilled water. […]
• 1. Add 2.5 μl of 10× Reaction Buffer per assay. • 2. Add 2.5 μl of ATF2 (amino acids 19-96). • 3. Add 2.5 μl (1-20 ng) JNK1α1/SAPK1c, active. • 4. Add 7.5 μl of sterile, distilled water. • 5. Add 10 μl of the diluted [γ-^32P]ATP mixture. • 6. Incubate for 10 minutes at 30° C. • 7. Transfer a 20 μl aliquot onto the center of a 2 cm×2 cm P81 paper. • 8. Wash the assay squares three times for 5 minutes with 0.75% phosphoric acid. • 9. Wash the assay squares once for 5 minutes with acetone. • 10. Transfer the assay squares to vial and add 5 ml scintillation cocktail. • 11. Read in scintillation counter. Compare cpm of enzyme samples to cpm of control samples that contain background control.

The target in test [3] is T2, Lck (Homo sapiens, UniProt P06239).
T2 construct: purchased Upstate 14-442
The experiment in a line: Lck kinase assay. It is filed as biochemical. How it is done: • 1. Assay Buffer: 200 mM Tris-HCl pH 7.5, 0.4 mM EGTA, 0.4 mM sodium orthovanadate. • 2. Enzyme Dilution Buffer (EDB): 20 mM MOPS, pH 7.5, 1 mM EDTA, 0.01% Brij-35, 5% glycerol, 0.1% β-mercaptoethanol, 1 mg/ml BSA. • 3. Lck, active: Dilute to 10-100 ng/μl with EDB. Use 2.5 μl per assay point. • 4. Src Substrate Peptide (Catalog #12-140): Prepare a 2.5 mM stock with sterile, distilled water. Use 2.5 μl per assay point for a final concentration of 250 μM per assay. • 5. Magnesium/ATP Cocktail (Catalog #20-113): 500 μM cold ATP and 75 mM magnesium chloride in 20 mM MOPS, pH 7.2, 25 mM β-glycerophosphate, 5 mM EGTA, 1 mM Na3VO4, 1 mM dithiothreitol. • 6. [γ-^32P]ATP: Stock 1 mCi/100 μl (3000 Ci/mmol, obtained from PerkinElmer, Catalog #BLU002A). Make 10 μl aliquots (100 μCi/vial). Before starting the assay, dilute the Magnesium/ATP Cocktail 1:1 with sterile, distilled water. Then dilute an aliquot of [γ-^32P]ATP to 1 μCi/μl with 90 μl of the diluted Magnesium/ATP Cocktail. […]
• 1. Add 6.25 μl of Assay Buffer per assay. • 2. Add 2.5 μl (25-250 ng) of Lck, active. • 3. Add 2.5 μl Src Substrate peptide (250 μM). • 4. Add 3.75 μl distilled water. • 5. Add 10 μl of the diluted [γ-^32P]ATP solution. • 6. Incubate for 10 minutes at 30° C. • 7. Transfer a 20 μl aliquot onto the center of a 2 cm×2 cm P81 paper. • 8. Wash assay squares five times with 0.75% phosphoric acid for 5 minutes per wash. • 9. Wash assay squares once with acetone for 5 minutes. • 10. Transfer assay squares to a scintillation vial and add 5 ml scintillation cocktail. • 11. Read in scintillation counter. Compare cpm of enzyme samples to cpm of control samples that contain no substrate (background control).

For test [4], the system named is panel of Ser/Thr kinases. The test is described as follows: Kinase panel, Ser/Thr kinases (average). It is filed as biochemical. The conditions noted are these: average over panel; for IC50: read-out: average IC50 among non-CDK Ser/Thr kinases.
[5] abbreviates: kinase panel, 10 μM ATP, read-out: JNK1α1 IC50.
Where [6] appears, read: read-out: MAPK8 Inhibition (IC50).
[7] abbreviates: read-out: LCK Inhibition (IC50).

The record followed here is patent US20080146555A1, “Uses of Kinase Inhibitors and Compositions Thereof” (GPC Biotech, Inc, priority 2004, published 2008).

Where a name gives a salt, the structure may show the parent alone. Read-outs that look alike come from different tables or passages of the source.

T1 sequence (P45983 1-384 isoform P45983-2, species assumed): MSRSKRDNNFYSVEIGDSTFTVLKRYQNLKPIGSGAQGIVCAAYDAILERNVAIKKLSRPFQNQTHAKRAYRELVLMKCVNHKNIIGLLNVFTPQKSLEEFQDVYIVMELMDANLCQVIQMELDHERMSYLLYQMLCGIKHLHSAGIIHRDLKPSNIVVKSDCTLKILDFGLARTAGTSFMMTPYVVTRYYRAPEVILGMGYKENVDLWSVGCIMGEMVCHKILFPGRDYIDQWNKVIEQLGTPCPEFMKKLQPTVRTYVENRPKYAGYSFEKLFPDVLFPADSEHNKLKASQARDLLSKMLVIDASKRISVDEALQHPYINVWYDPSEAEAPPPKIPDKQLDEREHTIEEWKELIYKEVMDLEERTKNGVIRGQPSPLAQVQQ
T2 sequence (P06239 whole entry): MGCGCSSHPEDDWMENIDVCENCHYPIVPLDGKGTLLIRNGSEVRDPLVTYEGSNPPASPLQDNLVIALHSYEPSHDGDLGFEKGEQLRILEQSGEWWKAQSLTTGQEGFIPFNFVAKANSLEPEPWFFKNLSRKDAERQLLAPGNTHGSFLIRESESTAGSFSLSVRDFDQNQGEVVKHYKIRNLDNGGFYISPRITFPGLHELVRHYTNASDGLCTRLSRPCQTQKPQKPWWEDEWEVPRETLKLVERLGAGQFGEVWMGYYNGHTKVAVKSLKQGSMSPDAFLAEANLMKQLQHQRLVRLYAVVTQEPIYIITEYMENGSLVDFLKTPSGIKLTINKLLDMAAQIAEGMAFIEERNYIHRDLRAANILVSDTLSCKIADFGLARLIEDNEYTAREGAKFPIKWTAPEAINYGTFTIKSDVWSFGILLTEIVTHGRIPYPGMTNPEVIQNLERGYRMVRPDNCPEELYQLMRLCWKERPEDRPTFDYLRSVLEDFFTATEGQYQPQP

`CC(C)N1CCN(C(=O)COc2ccc(-c3n[nH]c4c3C(=O)c3c(NC(=O)NN5CCOCC5)cccc3-4)cc2)CC1` [Compound A37]: the IC50 was 135 nM in test [1] (verapamil 12.5 μg/ml); 3430 nM in test [1] (without verapamil); 10 to 100 nM in test [2] (setting [5]); less than 50 nM in test [2] (setting [6]); less than 50 nM in test [3] (setting [7]); 44 nM in test [4]. For the same compound, in test [1], the “relative resistance, NCI-Adr resistant −/+ verapamil” value is reported as “about 25 fold”. Besides, the “RR (relative resistance) NCI-Adr resistant −/+ verapamil” value in test [1] is listed as 25.4. In addition, the “average IC50 among non-CDK Ser/Thr kinases” value in test [4] is “about 29 nM”.

With `COCCN1CCN(Cc2ccc(-c3n[nH]c4c3C(=O)c3c(NC(=O)NN5CCOCC5)cccc3-4)cc2)CC1` [Compound B16, N-[3-(4-{[4-(2-methoxyethyl)piperazinyl]methyl}phenyl)-4-oxoindeno[2,3-d]pyrazol-5-yl](morpholin-4-ylamino)carboxamide dihydrochloride], the IC50 in test [1] (verapamil 12.5 μg/ml) was 80 nM; in test [1] (without verapamil), 1870 nM; in test [2] (setting [5]), less than 100 nM; in test [2] (setting [6]), less than 100 nM; in test [3] (kinase panel, 10 μM ATP, read-out: Lck (Lymphocyte kinase) IC50), less than 100 nM; in test [3] (setting [7]), less than 50 nM. The IC50 in test [4] is roughly 50 nM. The “relative resistance, NCI-Adr resistant −/+ verapamil” value in test [1] is “about 25 fold”. Besides, the “RR (relative resistance) NCI-Adr resistant −/+ verapamil” value in test [1] is given as 23.4.
